Earlier results on one compound are cited in patent US20190117669A1, “Methods for Treating NSAID-Induced Cardiovascular, Cerebrovascular, or Renovascular Adverse Events” (University of Utah Research Foundation, priority 2016, published 2019).

The conditions of data set [1]: dogs, misoprostol 3 mcg/kg every 8 hours for 8 days.
For data set [2] the following is noted: rats, all misoprostol-treated groups.

As for `CCCCC(C)(O)C/C=C/[C@H]1[C@H](O)CC(=O)[C@@H]1CCCCCCC(=O)OC` (mixture of isomers) [misoprostol], the “azotemia, hyperphosphatemia and renal histopathologic changes versus gentamicin alone” value in data set [1] is “more severe azotemia, hyperphosphatemia, and renal histopathologic changes”. Also, the blood pressure result in data set [2] was “increased”.
